Measured values taken from ChEMBL document CHEMBL1201862, “PubChem BioAssay data set” (2004).
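Exposure lasted 48 hours, with cells grown in 96-well plates and compounds tested at five concentrations. GI50 = concentration required for 50% inhibition of growth.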 Calls of active or inactive are those of the source. No stated cut-off is given here; in the data, active = GI50 up to about 1.1 µM and inactive = higher.

Key:
Experiment in all cases: growth of human tumour cells (NCI), 48 h
NCI-H460 = system: NCI-H460
SNB-75 = system: SNB-75
SN12C = system: SN12C
LOX IMVI = system: LOX IMVI
HCT-116 = system: HCT-116
HCT-15 = system: HCT-15
SK-MEL-5 = system: SK-MEL-5
T47D = system: T47D
SNB-19 = system: SNB-19
NCI/ADR-RES = system: NCI/ADR-RES
MDA-MB-435 = system: MDA-MB-435
CCRF-CEM = system: CCRF-CEM
DU-145 = system: DU-145
786-0 = system: 786-0
SW-620 = system: SW-620
NCI-H226 = system: NCI-H226
K562 = system: K562
HOP-92 = system: HOP-92
IGROV-1 = system: IGROV-1
SR = system: SR
Hs-578T = system: Hs-578T
KM12 = system: KM12
SK-OV-3 = system: SK-OV-3
OVCAR-8 = system: OVCAR-8
UACC-257 = system: UACC-257
UACC-62 = system: UACC-62
M14 = system: M14
RPMI-8226 = system: RPMI-8226
MCF7 = system: MCF7
PC-3 = system: PC-3
SK-MEL-2 = system: SK-MEL-2
OVCAR-4 = system: OVCAR-4
HT-29 = system: HT-29
ACHN = system: ACHN
A498 = system: A498
HL-60 = system: HL-60
NCI-H23 = system: NCI-H23
OVCAR-3 = system: OVCAR-3
CAKI-1 = system: CAKI-1
BT-549 = system: BT-549
OVCAR-5 = system: OVCAR-5
SK-MEL-28 = system: SK-MEL-28
MDA-MB-231 = system: MDA-MB-231
SF-295 = system: SF-295
SF-539 = system: SF-539
SF-268 = system: SF-268
Malme-3M = system: Malme-3M
UO-31 = system: UO-31
U-251 = system: U-251
A549 = system: A549
HCC 2998 = system: HCC 2998
NCI-H522 = system: NCI-H522
RXF 393 = system: RXF 393
COLO 205 = system: COLO 205
HOP-62 = system: HOP-62
MOLT-4 = system: MOLT-4
TK-10 = system: TK-10
EKVX = system: EKVX

With `Cn1ccc(C(=O)NCCN(CCNC(=O)c2ccn(C)c(=O)c2O)CCNC(=O)c2cccc(=O)n2O)c(O)c1=O` the GI50 (NCI-H460) was > 100 µM (inactive), the GI50 (SNB-75) was > 100 µM (inactive) and the GI50 (SN12C) was > 100 µM (inactive). The GI50 (LOX IMVI) was > 100 µM (inactive), the GI50 (HCT-116) was > 100 µM (inactive) and the GI50 (HCT-15) was over 100 µM. The GI50 (SK-MEL-5) was > 100 µM (inactive), the GI50 (T47D) was > 100 µM (inactive) and the GI50 (SNB-19) was > 100 µM (inactive). For the same compound, the GI50 (NCI/ADR-RES) was > 100 µM (inactive), the GI50 (MDA-MB-435) was > 100 µM (inactive) and the GI50 (CCRF-CEM) was > 100 µM (inactive). The GI50 (DU-145) was > 100 µM (inactive), the GI50 (786-0) was > 100 µM (inactive) and the GI50 (SW-620) was > 100 µM (inactive). For the same compound, the GI50 (NCI-H226) was > 100 µM (inactive), the GI50 (K562) was > 100 µM (inactive) and the GI50 (HOP-92) was > 100 µM (inactive). For the same compound, the GI50 (IGROV-1) was 29.2 µM (inactive), the GI50 (SR) was > 100 µM (inactive) and the GI50 (Hs-578T) was > 100 µM (inactive). The GI50 (KM12) was 56.4 µM (inactive), the GI50 (SK-OV-3) was > 100 µM (inactive) and the GI50 (OVCAR-8) was > 100 µM (inactive). The GI50 (UACC-257) was > 100 µM (inactive), the GI50 (UACC-62) was > 100 µM (inactive) and the GI50 (M14) was > 100 µM (inactive). The GI50 (RPMI-8226) was > 100 µM (inactive), the GI50 (MCF7) was > 100 µM (inactive) and the GI50 (PC-3) was > 100 µM (inactive). The GI50 (SK-MEL-2) was > 100 µM (inactive), the GI50 (OVCAR-4) was > 100 µM (inactive) and the GI50 (HT-29) was > 100 µM (inactive). The GI50 (ACHN) was > 100 µM (inactive), the GI50 (A498) was > 100 µM (inactive) and the GI50 (HL-60) was > 100 µM (inactive). The GI50 (NCI-H23) was > 100 µM (inactive), the GI50 (OVCAR-3) was > 100 µM (inactive) and the GI50 (CAKI-1) was > 100 µM (inactive). For the same compound, the GI50 (BT-549) was > 100 µM (inactive), the GI50 (OVCAR-5) was > 100 µM (inactive) and the GI50 (SK-MEL-28) was > 100 µM (inactive). For the same compound, the GI50 (MDA-MB-231) was > 100 µM (inactive), the GI50 (SF-295) was > 100 µM (inactive) and the GI50 (SF-539) was > 100 µM (inactive). The GI50 (SF-268) was > 100 µM (inactive), the GI50 (Malme-3M) was > 100 µM (inactive) and the GI50 (UO-31) was > 100 µM (inactive). For the same compound, the GI50 (U-251) was > 100 µM (inactive), the GI50 (A549) was > 100 µM (inactive) and the GI50 (HCC 2998) was > 100 µM (inactive). For the same compound, the GI50 (NCI-H522) was > 100 µM (inactive), the GI50 (RXF 393) was > 100 µM (inactive) and the GI50 (COLO 205) was > 100 µM (inactive). For the same compound, the GI50 (HOP-62) was > 100 µM (inactive).

In the case of `O/N=C(\C=N\O)c1ccc2c(c1)Sc1ccccc1O2`, the GI50 (NCI-H460) is reported as 23.7 µM (inactive), the GI50 (SNB-75) is reported as 16.1 µM (inactive) and the GI50 (SN12C) is reported as 17.5 µM (inactive). The GI50 (LOX IMVI) was 30.5 µM (inactive), the GI50 (HCT-116) was 18 µM (inactive) and the GI50 (HCT-15) was 25.9 µM. The GI50 (MOLT-4) was 5.43 µM (inactive), the GI50 (T47D) was 24.5 µM (inactive) and the GI50 (SNB-19) was 24.2 µM (inactive). The GI50 (MDA-MB-435) was 12.1 µM (inactive), the GI50 (CCRF-CEM) was 2.39 µM (inactive) and the GI50 (DU-145) was 39.8 µM (inactive). For the same compound, the GI50 (786-0) was 17.5 µM (inactive), the GI50 (TK-10) was 31.4 µM (inactive) and the GI50 (SW-620) was 22.9 µM (inactive). The GI50 (NCI-H226) was 23.2 µM (inactive), the GI50 (K562) was 22.1 µM (inactive) and the GI50 (HOP-92) was 15.6 µM (inactive). For the same compound, the GI50 (SR) was 19.7 µM (inactive), the GI50 (Hs-578T) was 24.9 µM (inactive) and the GI50 (KM12) was 33 µM (inactive). The GI50 (SK-OV-3) was 18.1 µM (inactive), the GI50 (OVCAR-8) was 22.8 µM (inactive) and the GI50 (UACC-257) was 19.5 µM (inactive). The GI50 (UACC-62) was 18.1 µM (inactive), the GI50 (M14) was 19.9 µM (inactive) and the GI50 (RPMI-8226) was 12.2 µM (inactive). The GI50 (MCF7) was 16.9 µM (inactive), the GI50 (PC-3) was 14.8 µM (inactive) and the GI50 (OVCAR-4) was 25.1 µM (inactive). The GI50 (HT-29) was 21.4 µM (inactive), the GI50 (ACHN) was 19.9 µM (inactive) and the GI50 (A498) was 15.6 µM (inactive). For the same compound, the GI50 (HL-60) was 20.9 µM (inactive), the GI50 (NCI-H23) was 21.6 µM (inactive) and the GI50 (OVCAR-3) was 17.7 µM (inactive). For the same compound, the GI50 (CAKI-1) was 23.8 µM (inactive), the GI50 (BT-549) was 14.5 µM (inactive) and the GI50 (OVCAR-5) was 31.7 µM (inactive). For the same compound, the GI50 (SK-MEL-28) was 30.5 µM (inactive), the GI50 (MDA-MB-231) was 15.7 µM (inactive) and the GI50 (SF-295) was 22.3 µM (inactive). For the same compound, the GI50 (SF-539) was 26.4 µM (inactive), the GI50 (SF-268) was 16.8 µM (inactive) and the GI50 (Malme-3M) was 29.5 µM (inactive). For the same compound, the GI50 (UO-31) was 21.4 µM (inactive), the GI50 (U-251) was 26.8 µM (inactive) and the GI50 (A549) was 30.8 µM (inactive). The GI50 (HCC 2998) was 23.4 µM (inactive), the GI50 (NCI-H522) was 3.53 µM (inactive) and the GI50 (RXF 393) was 15.8 µM (inactive). The GI50 (COLO 205) was 21.4 µM (inactive), the GI50 (EKVX) was 16.5 µM (inactive) and the GI50 (HOP-62) was 17.5 µM (inactive).
